The NIST ThermoML archive (doi:10.1021/je400149j)
Numbers after ± are expanded uncertainties.

Columns and labels:
[1] = relative permittivity at zero frequency (dimensionless); conditions: 101 kPa, Liquid, impedance/gain phase analyzer
[2] = Crystal; Derived from relative static permittivity measurements of the liquid and solid states
[3] = relative permittivity at zero frequency (dimensionless); xn = mol fraction of the nth substance listed; conditions: 101 kPa, Liquid, impedance/gain phase analyzer, x2 = 0

C[S+](C)[O-] [dimethyl sulfoxide]
[1]
Conditions	relative permittivity at zero frequency
291.15 K	47.15 ± 0.1
293.15 K	47.09 ± 0.1
295.15 K	46.84 ± 0.1
297.15 K	46.64 ± 0.1
299.15 K	46.39 ± 0.1
301.15 K	46.18 ± 0.1
303.15 K	45.94 ± 0.1
305.15 K	45.63 ± 0.1
307.15 K	45.39 ± 0.1
309.15 K	45.14 ± 0.1
311.15 K	44.88 ± 0.1
313.15 K	44.64 ± 0.1
315.15 K	44.34 ± 0.1
317.15 K	44.11 ± 0.1
319.15 K	43.87 ± 0.1
321.15 K	43.58 ± 0.1
323.15 K	43.31 ± 0.1
325.15 K	43.07 ± 0.1
327.15 K	42.78 ± 0.1
329.15 K	42.56 ± 0.1
331.15 K	42.27 ± 0.1
333.15 K	42 ± 0.1

Conditions	Normal melting temperature [°C]
[2]	18.1 ± 1

O [water]
[1]
Conditions	relative permittivity at zero frequency
273.15 K	87 ± 0.1
275.15 K	86.36 ± 0.1
277.15 K	85.67 ± 0.1
279.15 K	84.84 ± 0.1
281.15 K	84.25 ± 0.1
283.15 K	83.37 ± 0.1
285.15 K	82.73 ± 0.1
287.15 K	82.02 ± 0.1
289.15 K	81.33 ± 0.1
291.15 K	80.65 ± 0.1
293.15 K	79.98 ± 0.1
295.15 K	79.32 ± 0.1
297.15 K	78.42 ± 0.1
299.15 K	77.85 ± 0.1
301.15 K	77.29 ± 0.1
303.15 K	76.61 ± 0.1
305.15 K	75.95 ± 0.1
307.15 K	75.3 ± 0.1
309.15 K	74.65 ± 0.1
311.15 K	73.97 ± 0.1
313.15 K	73.29 ± 0.1
315.15 K	72.68 ± 0.1
317.15 K	72.09 ± 0.1
319.15 K	71.44 ± 0.1
321.15 K	70.76 ± 0.1
323.15 K	70.14 ± 0.1
325.15 K	69.54 ± 0.1
327.15 K	68.94 ± 0.1
329.15 K	68.3 ± 0.1
331.15 K	67.68 ± 0.1
333.15 K	67.07 ± 0.1

Conditions	Normal melting temperature [°C]
[2]	0.1 ± 1

O [water] + C[S+](C)[O-]
[3]
Conditions	relative permittivity at zero frequency
273.15 K	87 ± 0.1
275.15 K	86.36 ± 0.1
277.15 K	85.67 ± 0.1
279.15 K	84.84 ± 0.1
281.15 K	84.25 ± 0.1
283.15 K	83.37 ± 0.1
285.15 K	82.73 ± 0.1
287.15 K	82.02 ± 0.1
289.15 K	81.33 ± 0.1
291.15 K	80.65 ± 0.1
293.15 K	79.98 ± 0.1
295.15 K	79.32 ± 0.1
297.15 K	78.42 ± 0.1
299.15 K	77.85 ± 0.1
301.15 K	77.29 ± 0.1
303.15 K	76.61 ± 0.1
305.15 K	75.95 ± 0.1
307.15 K	75.3 ± 0.1
309.15 K	74.65 ± 0.1
311.15 K	73.97 ± 0.1
313.15 K	73.29 ± 0.1
315.15 K	72.68 ± 0.1
317.15 K	72.09 ± 0.1
319.15 K	71.44 ± 0.1
321.15 K	70.76 ± 0.1
323.15 K	70.14 ± 0.1
325.15 K	69.54 ± 0.1
327.15 K	68.94 ± 0.1
329.15 K	68.3 ± 0.1
331.15 K	67.68 ± 0.1
333.15 K	67.07 ± 0.1
